In general, IC50 refers to the concentration needed to halve the response being measured. A word on the solubility: it is the dissolved amount per volume that the medium holds. Read a high solubility as much dissolved substance.

Series [1] concerns IL23. As to conditions: as tested in PCT/CN2021/140271; read-out: HEK blue IL23 IC50; cited from earlier work.
Series [2] in a line: Dynamic vapor sorption (DVS) analysis. As to conditions: for hygroscopic weight gain / water uptake (DVS): at 90% RH. It is filed as physicochemical. On the procedure:
Dynamic Vapor Sorption (DVS) Analysis: Moisture sorption/desorption data was collected on a DVS Intrinsic PLUS (SMS, UK). The sample was placed into a tared sample chamber and automatically weighed. The sample was dried at 40° C. until the dm/dt was less than 0.002% and cooled to 25° C.

The nature of series [3]: Solubility in bio-relevant media (FaSSIF, FeSSIF, SGF). The series is classed as physicochemical. The text has this: (§1) High Performance Liquid Chromatography (HPLC): a representative HPLC method is shown below, which can be used, for example, to analyze the purity, solubility, and stability of Compound 1 herein.
Series [4] is described as follows: Solid stability. It is filed as physicochemical.
From the text: as §1

Series [5] is described as follows: Inter-conversion study among identified anhydrates in organic solvents. As to conditions: different organic solvents, RT to 60° C. It is filed as physicochemical. On the procedure: Inter-conversion study among identified anhydrates (Form I, Form II, Form III, Form IV, Form V, Form VIII, Form X, Form XIII, Form XIV, Form XV) was conducted in different organic solvents between RT to 60° C.

The nature of series [6]: Slurry bridging studies among Form I, Form III and Form VI under different water activities. It is filed as physicochemical. As to conditions: versus Form I and Form VI.
Where [7] appears, read: Simulated Gastric Fluid (SGF), simulated gastric fluid, thermodynamic from solid, SGF.
The mark [8] stands for this setting: thermodynamic from solid, FaSSIF.
Where [9] appears, read: thermodynamic from solid, FeSSIF.

Molecules are shown by their SMILES. Converted amounts (≈) assume the structure as drawn. “Also recorded” adds a separate entry of the source. Where a name gives a salt, the structure may show the parent alone.

Regarding `[2H]C([2H])([2H])NC(=O)c1nnc(NC(=O)C2CC2)cc1Nc1ncc(Cl)cc1S(C)(=O)=O` [Compound 1], the IC50 in series [1] is 2.5 nM.
Regarding `[2H]C([2H])([2H])NC(=O)c1nnc(NC(=O)C2CC2)cc1Nc1ncc(Cl)cc1S(C)(=O)=O` [Form III], the DVS reversibility result in series [2] is recorded as “Reversible”. Further, the “DVS Wt. gain %” value is 0.09%, 0-80% RH in series [2] (0-80% RH) and 0.03%, 80-90% RH in series [2] (80-90% RH). Further, the “hygroscopic weight gain / water uptake (DVS)” value in series [2] is given as 0.13%. The “Solubility (in words)” value in series [3] is “low and pH-dependent with higher solubility observed in Simulated Gastric Fluid (SGF)”. Further, the values for the solubility at 0.5 h in series [3] (setting [7]), in series [3] (setting [8]) and in series [3] (setting [9]) were 7.3 µg/mL (≈ 17.1 µM), 1.1 µg/mL (≈ 2.57 µM) and 2.6 µg/mL (≈ 6.08 µM), respectively. Further, the figures for the solubility at 2 h in series [3] (setting [7]), in series [3] (setting [8]) and in series [3] (setting [9]) were 8.2 µg/mL (≈ 19.2 µM), 1.1 µg/mL (≈ 2.57 µM) and 3.4 µg/mL (≈ 7.95 µM), respectively. The values for the solubility at 24 h in series [3] (setting [7]), in series [3] (setting [8]) and in series [3] (setting [9]) were 5.7 µg/mL (≈ 13.3 µM), 1.3 µg/mL (≈ 3.04 µM) and 4.1 µg/mL (≈ 9.58 µM), respectively. The Solid stability entry in series [4] (40° C./75% RH for 7 d) is “physically and chemically stable; also recorded: Chemically and physically stable”; in series [4] (60° C. for 7 d), “physically and chemically stable; also recorded: Chemically and physically stable”; in series [4] (92.5% RH for 10 d), “crystal form remained unchanged; also recorded: Physically stable”. The “relative stability among anhydrate forms” value in series [5] was “most stable anhydrate form”. For the same compound, the “water activity up to which the form is more stable” value was “not more than 0.56” in series [6] (25° C.) and not above 0.83 in series [6] (50° C.).
On to `[2H]C([2H])([2H])NC(=O)c1nnc(NC(=O)C2CC2)cc1Nc1ncc(Cl)cc1S(C)(=O)=O` [choline salt Form K], for which the “hygroscopic weight gain / water uptake (DVS)” value in series [2] was “about 23%”.
Consider `[2H]C([2H])([2H])NC(=O)c1nnc(NC(=O)C2CC2)cc1Nc1ncc(Cl)cc1S(C)(=O)=O` [phosphate Form E], for which the “hygroscopic weight gain / water uptake (DVS)” value in series [2] is recorded as “about 0.92%”.
Consider `[2H]C([2H])([2H])NC(=O)c1nnc(NC(=O)C2CC2)cc1Nc1ncc(Cl)cc1S(C)(=O)=O` [sulfate Form A], for which, in series [2], the “hygroscopic weight gain / water uptake (DVS)” value is on record as “about 10%”.
`[2H]C([2H])([2H])NC(=O)c1nnc(NC(=O)C2CC2)cc1Nc1ncc(Cl)cc1S(C)(=O)=O` [sulfate Form B]: the “hygroscopic weight gain / water uptake (DVS)” value in series [2] is reported as “about 1.0%”. In series [3] (bio-relevant media (FaSSIF, FeSSIF, SGF), fassgf or other biorelevant, thermodynamic from solid), this compound gave a solubility of less than 20 µg/mL.

The values are drawn from patent US12655123B2, “Heteroaryl compounds, solid forms, preparation methods and uses thereof” (InventisBio Co., Ltd., priority 2022, dated 2026).
